# Source: paper PMC5880808, “A lever-like transduction pathway for long-distance chemical- and mechano-gating of the mechanosensitive Piezo1 channel” (Nature Communications, 2018)
# Experiments:
# Human Piezo1 (hPiezo1) = target: T1, Human Piezo1 (hPiezo1) (Homo sapiens, UniProt Q92508); experiment: Fura-2 single-cell Ca2+ imaging of hPiezo1-expressing cells; type: cell-based
# T1 construct: expressed in transfected cells; host or cells: HEK293T
# Description: Fura-2 single-cell Ca^2+ imaging was performed according to the previous protocol. In brief, mCherry-Piezo1 cDNA (1 μg)-transfected HEK293T cells were plated onto 12-mm round glass coverslips, which were coated with poly-D-lysine and placed in 24-well plates, and subject to Fura-2 single-cell Ca^2+ imaging about 36 h post transfection. Cells were washed with buffer containing 1× HBSS (1.3 mM Ca^2+) and 10 mM HEPES (pH 7.2), incubated with 2.5 μM Fura-2 and 0.05% Pluronic F-127 (Life Technologies) for 30 min, then washed again with the previously mentioned buffer. The coverslip was mounted into an inverted Nikon-Tie microscope equipped with a CoolSNAP charge-coupled devise (CCD) camera and Lambda XL light box (Sutter Instrument), and mCherry-positive and -negative cells were selected for measurement of the 340/380 ratio with a ×20 objective (numerical aperture 0.75) using the MetaFluor Fluorescence Ratio Imaging software (Molecular Device).
# Water solubility = type: physicochemical; conditions: up to
# [1] = test system: mPiezo1 loop deletion mutants ΔL15-16 (657-677) and ΔL19-20 (870–921); experiment: FLIPR GCAMP6s Ca2+ dose response, loop deletion mutants; type: cell-based, mouse; conditions: ΔL15-16 and ΔL19-20, FLIPR
# Description: HEK293T cells were grown in Dulbecco’s modified Eagle medium containing 4.5 mg/ml glucose, 10% fetal bovine serum, and 1% penicillin/streptomycin. Cells were seeded in 50 μg/ml poly-D-lysine-coated 96-well plates (3 × 10^4 cells/well) and allowed to grow for about 18 h, and then co-transfected with a total of 250 ng cDNA containing Piezo1 or Piezo2 and GCaMP6s using Lipofectamine 2000 (Invitrogen, Life Technology). Two days after transfection the cells were washed with buffer containing 1× Hanks’ balanced salt solution (HBSS; 1.3 mM Ca^2+) and 10 mM HEPES (pH 7.2). The 96-well plates were then transferred to the FLIPR Tetra (Molecular Device) for monitoring the GCAMP6s fluorescence before and after addition of the compounds that were prepared in separate compound plates. For the initial screening, we screened about 3000 compounds derived from either the chemical library collected in Dr. Yu Rao’s lab, which is composed of different classes of heterocycles, including various drug scaffold or the Maybridge Ro3 Diversity Fragment Library purchased from Maybridge (Cambridge, UK), which consists of 2500 fragment compounds with a molecular weight below 350 and high rule of three compliance. Each compound was tested at a final concentration of 200 μM. Approximately 20 positive hits were selected for further testing in Piezo1-, Piezo2-, or vector-transfected cells. […]
# [2] = test system: mPiezo1 loop deletion mutants ΔL15-16 (657-677) and ΔL19-20 (870–921); experiment: Patch clamp (chemical-, poking- and stretching-induced currents), loop deletion mutants; type: cell-based, mouse
# Description: (§1) Protocols for HEK293T cell culture, transient transfection, and patch-clamp experiments with an Axopatch 200B amplifier (Axon Instruments) or HEKA EPC10 were essentially similar to how previously described[6],[8]. […] The extracellular solution was composed of (in mM) 133 NaCl, 3 KCl, 2.5 CaCl2, 1 MgCl2, 10 HEPES (pH 7.3 with NaOH), and 10 glucose. All experiments were carried out at room temperature. Currents were sampled at 20 kHz, filtered at 2 kHz using the Clampex 10.4 software (Axon Instruments) or Patchmaster software. Leak currents before mechanical stimulations were subtracted offline from the current traces.
# Mechanical stimulation was delivered to the cell during the patch-clamp recording at an angle of 80° using a fire-polished glass pipette (tip diameter 3–4 μm) as previously described[5],[6]. […] A series of mechanical steps in 1 μm increments was applied every 20 s and currents were recorded at a holding potential of −70 mV. […] In the step-wise poking experiment, the patch was readily lost when the cell was broken at the end of the poking. […]
# (§2) Stretch-activated currents were recorded in the cell-attached patch-clamp configuration as previously described. […] Stretch-activated channels were recorded at a holding potential of −80 mV with pressure steps from 0 to −100 mm Hg (−10 mm Hg increments), and 4–11 recording traces were averaged per cell for analysis. […]
# [3] = target: T2, mPiezo1 L1342A/L1345A mutant (Mus musculus, UniProt E2JF22, L1342A/L1345A); experiment: Patch clamp (chemical-induced and stretch-induced currents), L1342A/L1345A mutant; type: cell-based; conditions: Piezo1-KO-HEK cells for chemical-induced currents
# T2 construct: The full-length mPiezo1 has 2547 amino acids in each monomer; expressed in transfected cells
# Description: as §1
# Stock solutions of Jedi1 (100 mM), Jedi2 (100 mM), and Yoda1 (30 mM) were solubilized in DMSO and diluted to the desired final concentrations as indicated in the figure legends using external or internal solutions. […] In other conditions, the compounds were directly added to the recording chamber or pipette solution, and the currents were recorded within 10 min. […]
# as §2
# [4] = set-up: method as in PMID 26001275; conditions: up; cited from earlier work
# T2 sequence (E2JF22 whole entry L1342A/L1345A): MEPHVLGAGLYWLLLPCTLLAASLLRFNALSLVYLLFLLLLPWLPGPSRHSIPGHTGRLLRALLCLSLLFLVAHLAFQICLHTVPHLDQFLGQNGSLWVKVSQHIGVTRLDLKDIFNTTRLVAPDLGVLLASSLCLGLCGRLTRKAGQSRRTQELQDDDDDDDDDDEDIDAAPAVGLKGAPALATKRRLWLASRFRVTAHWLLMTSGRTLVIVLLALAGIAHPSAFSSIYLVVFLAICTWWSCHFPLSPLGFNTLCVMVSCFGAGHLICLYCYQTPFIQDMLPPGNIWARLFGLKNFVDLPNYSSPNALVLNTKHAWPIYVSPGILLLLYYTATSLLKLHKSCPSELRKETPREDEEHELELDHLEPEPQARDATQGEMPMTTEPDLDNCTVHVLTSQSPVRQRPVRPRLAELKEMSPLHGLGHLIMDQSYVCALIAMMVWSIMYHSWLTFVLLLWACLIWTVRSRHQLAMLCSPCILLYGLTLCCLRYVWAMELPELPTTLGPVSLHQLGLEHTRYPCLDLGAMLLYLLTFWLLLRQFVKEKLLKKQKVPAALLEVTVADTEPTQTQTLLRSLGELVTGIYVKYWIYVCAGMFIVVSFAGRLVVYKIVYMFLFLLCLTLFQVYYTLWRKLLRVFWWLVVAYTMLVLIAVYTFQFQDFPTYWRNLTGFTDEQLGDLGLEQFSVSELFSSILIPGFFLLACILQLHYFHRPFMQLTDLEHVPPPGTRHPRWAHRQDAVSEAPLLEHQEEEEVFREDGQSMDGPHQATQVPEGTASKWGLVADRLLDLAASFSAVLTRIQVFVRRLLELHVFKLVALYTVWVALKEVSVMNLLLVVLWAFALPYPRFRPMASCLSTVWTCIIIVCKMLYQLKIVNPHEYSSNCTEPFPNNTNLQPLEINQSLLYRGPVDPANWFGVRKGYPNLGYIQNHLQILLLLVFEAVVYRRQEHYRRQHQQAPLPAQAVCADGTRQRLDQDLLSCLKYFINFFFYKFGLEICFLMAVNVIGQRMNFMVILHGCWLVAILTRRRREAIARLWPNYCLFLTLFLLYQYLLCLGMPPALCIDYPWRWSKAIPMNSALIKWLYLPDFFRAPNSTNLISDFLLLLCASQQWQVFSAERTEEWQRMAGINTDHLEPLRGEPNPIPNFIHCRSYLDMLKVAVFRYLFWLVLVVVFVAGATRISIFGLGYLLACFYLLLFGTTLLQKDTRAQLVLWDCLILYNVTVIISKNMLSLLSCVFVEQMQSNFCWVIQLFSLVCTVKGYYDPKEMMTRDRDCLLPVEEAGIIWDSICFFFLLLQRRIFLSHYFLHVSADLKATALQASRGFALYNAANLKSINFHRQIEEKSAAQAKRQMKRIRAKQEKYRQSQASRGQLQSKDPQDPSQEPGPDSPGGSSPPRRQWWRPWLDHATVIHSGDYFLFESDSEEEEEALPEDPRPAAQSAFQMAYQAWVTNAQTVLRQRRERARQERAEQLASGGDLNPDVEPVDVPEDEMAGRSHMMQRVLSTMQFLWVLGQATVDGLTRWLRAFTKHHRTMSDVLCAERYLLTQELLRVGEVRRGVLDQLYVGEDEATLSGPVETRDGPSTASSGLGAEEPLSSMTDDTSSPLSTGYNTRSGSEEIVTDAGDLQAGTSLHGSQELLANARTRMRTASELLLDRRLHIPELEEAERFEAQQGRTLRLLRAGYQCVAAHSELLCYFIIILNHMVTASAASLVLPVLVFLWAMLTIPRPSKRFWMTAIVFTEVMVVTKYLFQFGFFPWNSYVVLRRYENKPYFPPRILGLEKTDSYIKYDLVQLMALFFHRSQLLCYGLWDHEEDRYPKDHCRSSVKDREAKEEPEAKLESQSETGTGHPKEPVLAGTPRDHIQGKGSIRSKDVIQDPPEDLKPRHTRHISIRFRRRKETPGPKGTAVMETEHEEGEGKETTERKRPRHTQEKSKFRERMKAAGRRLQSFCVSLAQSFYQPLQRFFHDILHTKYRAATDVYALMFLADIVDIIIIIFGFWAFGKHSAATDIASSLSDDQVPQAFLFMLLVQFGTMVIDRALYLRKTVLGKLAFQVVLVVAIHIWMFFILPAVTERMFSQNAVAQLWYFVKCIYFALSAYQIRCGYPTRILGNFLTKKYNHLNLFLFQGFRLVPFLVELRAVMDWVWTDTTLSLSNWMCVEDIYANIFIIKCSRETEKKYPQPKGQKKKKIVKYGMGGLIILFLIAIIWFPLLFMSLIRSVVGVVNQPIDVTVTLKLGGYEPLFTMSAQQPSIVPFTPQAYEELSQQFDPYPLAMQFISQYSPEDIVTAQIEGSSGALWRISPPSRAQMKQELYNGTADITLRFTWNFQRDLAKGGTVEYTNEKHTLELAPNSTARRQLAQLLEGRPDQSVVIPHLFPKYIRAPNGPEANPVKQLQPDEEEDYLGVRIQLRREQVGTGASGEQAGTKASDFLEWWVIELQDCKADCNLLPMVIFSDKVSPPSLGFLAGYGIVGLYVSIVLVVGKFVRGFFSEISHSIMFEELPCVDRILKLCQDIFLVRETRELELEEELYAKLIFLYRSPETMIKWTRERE
# T1 sequence (Q92508 whole entry): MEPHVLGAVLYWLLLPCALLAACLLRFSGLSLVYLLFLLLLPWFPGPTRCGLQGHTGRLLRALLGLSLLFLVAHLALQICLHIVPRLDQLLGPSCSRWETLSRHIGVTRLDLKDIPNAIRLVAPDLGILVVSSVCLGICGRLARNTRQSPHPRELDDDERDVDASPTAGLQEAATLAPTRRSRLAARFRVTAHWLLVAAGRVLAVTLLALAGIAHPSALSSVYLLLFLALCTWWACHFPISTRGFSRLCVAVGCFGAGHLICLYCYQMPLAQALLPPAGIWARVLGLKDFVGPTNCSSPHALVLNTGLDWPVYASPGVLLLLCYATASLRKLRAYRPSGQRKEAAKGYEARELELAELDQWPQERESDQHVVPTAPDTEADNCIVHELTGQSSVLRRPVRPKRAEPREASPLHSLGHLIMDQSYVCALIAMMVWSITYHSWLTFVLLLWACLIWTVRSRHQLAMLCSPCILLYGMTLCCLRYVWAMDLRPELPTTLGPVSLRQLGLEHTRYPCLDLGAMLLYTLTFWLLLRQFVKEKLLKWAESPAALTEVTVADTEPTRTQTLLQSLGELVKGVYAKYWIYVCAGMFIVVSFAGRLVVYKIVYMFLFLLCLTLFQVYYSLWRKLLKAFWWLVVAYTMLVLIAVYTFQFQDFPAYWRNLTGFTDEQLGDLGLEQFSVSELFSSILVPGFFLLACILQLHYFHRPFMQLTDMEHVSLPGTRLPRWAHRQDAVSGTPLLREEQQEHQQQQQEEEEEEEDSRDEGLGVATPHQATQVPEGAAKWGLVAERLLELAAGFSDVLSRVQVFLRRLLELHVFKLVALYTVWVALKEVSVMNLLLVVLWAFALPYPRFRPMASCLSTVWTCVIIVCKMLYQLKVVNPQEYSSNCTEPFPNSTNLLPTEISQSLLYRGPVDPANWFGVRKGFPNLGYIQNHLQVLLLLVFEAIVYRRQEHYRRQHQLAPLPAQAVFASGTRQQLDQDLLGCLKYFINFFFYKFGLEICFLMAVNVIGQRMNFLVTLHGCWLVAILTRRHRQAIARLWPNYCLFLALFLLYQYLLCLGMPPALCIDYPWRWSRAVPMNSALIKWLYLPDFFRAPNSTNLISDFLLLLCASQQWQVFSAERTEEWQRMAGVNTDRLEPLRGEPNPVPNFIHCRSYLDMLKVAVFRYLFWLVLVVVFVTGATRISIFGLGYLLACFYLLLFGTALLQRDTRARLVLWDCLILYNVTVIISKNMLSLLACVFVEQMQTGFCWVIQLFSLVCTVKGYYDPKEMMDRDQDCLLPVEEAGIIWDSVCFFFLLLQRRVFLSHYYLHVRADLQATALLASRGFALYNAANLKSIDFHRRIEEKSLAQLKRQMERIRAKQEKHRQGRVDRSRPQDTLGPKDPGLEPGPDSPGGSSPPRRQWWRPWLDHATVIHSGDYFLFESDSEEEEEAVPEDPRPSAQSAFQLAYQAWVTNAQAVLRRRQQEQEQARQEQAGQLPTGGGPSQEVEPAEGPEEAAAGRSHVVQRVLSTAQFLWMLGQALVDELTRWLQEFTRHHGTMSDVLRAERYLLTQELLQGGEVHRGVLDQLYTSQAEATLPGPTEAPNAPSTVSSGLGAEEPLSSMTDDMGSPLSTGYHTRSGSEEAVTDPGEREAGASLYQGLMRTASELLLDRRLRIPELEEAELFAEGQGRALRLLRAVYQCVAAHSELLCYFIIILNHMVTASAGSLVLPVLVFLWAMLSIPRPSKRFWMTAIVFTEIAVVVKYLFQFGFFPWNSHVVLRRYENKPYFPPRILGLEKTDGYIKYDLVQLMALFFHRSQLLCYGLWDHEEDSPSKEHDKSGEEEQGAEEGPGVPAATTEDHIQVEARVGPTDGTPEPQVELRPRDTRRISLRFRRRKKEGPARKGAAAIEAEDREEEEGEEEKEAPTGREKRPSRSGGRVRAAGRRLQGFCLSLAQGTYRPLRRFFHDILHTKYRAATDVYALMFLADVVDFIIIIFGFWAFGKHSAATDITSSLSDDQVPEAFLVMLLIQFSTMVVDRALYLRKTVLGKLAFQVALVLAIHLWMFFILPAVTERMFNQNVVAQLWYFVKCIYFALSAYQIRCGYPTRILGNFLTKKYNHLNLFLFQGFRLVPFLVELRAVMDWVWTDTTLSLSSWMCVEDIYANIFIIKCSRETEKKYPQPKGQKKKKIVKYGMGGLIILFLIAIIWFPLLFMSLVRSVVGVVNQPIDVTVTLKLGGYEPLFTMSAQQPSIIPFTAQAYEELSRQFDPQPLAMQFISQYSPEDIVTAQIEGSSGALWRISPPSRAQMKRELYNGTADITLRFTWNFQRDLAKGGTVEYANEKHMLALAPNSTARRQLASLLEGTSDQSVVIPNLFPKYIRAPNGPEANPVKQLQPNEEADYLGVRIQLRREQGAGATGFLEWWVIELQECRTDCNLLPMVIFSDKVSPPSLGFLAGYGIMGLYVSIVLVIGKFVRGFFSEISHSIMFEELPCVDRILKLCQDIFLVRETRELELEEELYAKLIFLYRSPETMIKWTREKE
Structure (SMILES),Ca2+ response (Fura-2) (Human Piezo1 (hPiezo1)),solubility (Water solubility),Ca2+ response of loop deletion mutants [1],whole-cell currents or potentiation of poking- or stretching-induced currents in loop deletion mutants ([2]; ΔL15-16 and ΔL19-20 mutant-transfected cells),"inward currents, stretching-current relationship and P50 of the L1342A/L1345A mutant [3]","potentiation of stretching-induced currents of loop deletion mutants ([2]; ΔL15-16 and ΔL19-20, −80 mV)",water solubility [4]
Cc1oc(-c2ccccc2)cc1C(=O)O [Jedi1],responded to Jedi1 as well,~2000 µM,no dose-dependent Ca^2+ responses,failed to elicit,neither elicited inward currents,,
Cc1oc(-c2cccs2)cc1C(=O)O [Jedi2],,~2000 µM,no dose-dependent Ca^2+ responses,,,,
"Clc1cccc(Cl)c1CSc1nnc(-c2cnccn2)s1 [Yoda1, reference compound]",,,,,neither elicited inward currents,failed to potentiate,~ 30 μM
